Reference: PubChem BioAssay (NCI)
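Briefly, cells in 96-well plates were exposed to five compound concentrations for 48 h, and endpoints were estimated by linear interpolation. At the GI50, growth is halved. At the TGI there is no net growth.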

Experiments:
Assay in all cases: growth of human tumour cells (NCI), 48 h
[1] = test system: HOP-92 NSCLC
[2] = test system: LOX IMVI melanoma
[3] = test system: MALME-3M melanoma
[4] = test system: KM12 colon
[5] = test system: HCT-15 colon
[6] = test system: NCI-H226 lung
[7] = test system: HT29 colon
[8] = test system: SW-620 colon
[9] = test system: UO-31 renal
[10] = test system: NCI/ADR-RES ovarian
[11] = test system: PC-3 prostate

SMILES	TGI [1] [µM]	TGI [2] [µM]	TGI [3] [µM]	TGI [4] [µM]	TGI [5] [µM]	TGI [6] [µM]	TGI [7] [µM]	TGI [8] [µM]	TGI [9] [µM]	TGI [10] [µM]	TGI [11] [µM]	GI50 [6] [µM]
O=C1/C(=C/c2ccccc2)CCCC/C1=C\c1ccccc1	> 100	> 100	> 100	> 100	> 100	> 100	32	> 100	> 100	–	–	–
COc1ccc(-n2cnc3c(NC(C)(C)C(=O)O)ncnc32)cc1	> 100	> 100	–	> 100	> 100	> 100	> 100	> 100	> 100	> 100	> 100	–
COc1ccc2c(c1)/C(=C\c1cccc(/C=C3/C(=O)Nc4ccc(OC)cc43)n1)C(=O)N2	7.44	1.24	5.51	4.64	> 25.1	4.16	–	7.92	3.81	> 58.8	8.91	1.54
COC(=O)c1cc(C#N)[nH]c1-c1cccs1	> 100	–	–	> 100	> 100	> 100	–	> 100	> 100	> 100	> 100	–
CCOC(=O)/C(=C\NC(C)(C)C)c1nc2ccccc2o1	92.1	65.4	85.6	> 100	> 100	63.4	80.8	> 100	–	> 100	–	–
CN(C)CCN1C(=O)c2ccccc2C1(O)c1ccc(Cl)cc1 (configuration not stated)	–	–	70.7	> 100	> 100	> 100	> 100	> 100	> 100	> 100	> 100	–
CC(Oc1ccc(Cl)cc1Cl)C(=O)NN1C(=O)CSC1c1ccc(Cl)cc1 (configuration not stated)	66.3	> 100	–	> 100	> 100	39.2	> 100	> 100	> 100	> 100	> 100	–
CCOC(=O)c1c(NC(=O)c2ccc(OC)cc2)sc2c1CCCC2	–	–	–	> 100	–	> 100	> 100	> 100	> 100	> 100	> 100	–
CCn1c(SCC(=O)NNC(=S)Nc2ccc(F)cc2)nc2ccccc2c1=O	–	> 100	> 100	> 100	> 100	> 100	> 100	> 100	> 100	> 100	> 100	–
Cc1ccc(S(=O)(=O)n2cnc(CC(NC(=O)C3CCC(=O)N3C(=O)OCc3ccccc3)C(=O)N3CCCC3C(=O)NN)c2)cc1 (configuration not stated)	> 100	–	> 100	> 100	> 100	> 100	> 100	> 100	> 100	–	> 100	–
CC(C)(CCCCC(C)(C)NCC1COc2ccccc2O1)NCC1COc2ccccc2O1 (configuration not stated)	7.43	> 10	4.65	> 10	> 10	> 10	7.08	> 10	–	> 10	> 10	–
